How the values were obtained:
[1] = molecular target: T1, rOT7T022L (Rattus norvegicus, UniProt Q9EP86); assay: Cytosensor acidification rate of rOT7T022L receptor-expressing CHO cells; type: cell-based; conditions: peptide exposure 7 min 2 sec
T1 construct: expressed in transfected cells; host or cells: CHO dhfr- cells (clone CHO-rOT7T022L)
Source text: The rOT7T022L receptor-expressing CHO cells obtained in (2) in Reference Example 7 were sown in cytosensor capsules at 2.7×10^5 cells/capsule. After overnight culture, the capsules were mounted in the work station of a cytosensor. The assay medium (0.1% bovine serum albumin-containing low buffered RPMI1640 medium) positioned in the flow route of the cytosensor was supplied to the cells under pump ON (80 sec)/pump OFF (40 sec) cycles. In each cycle, the change ratio of extracellular pH for 30 sec starting from 8 sec after the stop of the pump was calculated as acidification rate. The time course of acidification rate was monitored. When this rate began to show stable values, the flow route was shifted to thereby expose individual peptide to the cells for 7 min and 2 sec. The values of acidification rate in individual wells were normalized taking the values for the 3 cycles immediately before the peptide exposure as 100%.

[2] = molecular target: T2, human-type OT7T022 (Homo sapiens, UniProt Q9GZQ6); assay: Binding inhibition of 125I-Tyr-hRFRP-3(8) to membrane fraction from human-type OT7T022-expressing CHO cells; conditions: room temperature 1.5 hr
T2 construct: expressed in transfected cells; host or cells: CHO cells
T2 sequence (Q9GZQ6 whole entry): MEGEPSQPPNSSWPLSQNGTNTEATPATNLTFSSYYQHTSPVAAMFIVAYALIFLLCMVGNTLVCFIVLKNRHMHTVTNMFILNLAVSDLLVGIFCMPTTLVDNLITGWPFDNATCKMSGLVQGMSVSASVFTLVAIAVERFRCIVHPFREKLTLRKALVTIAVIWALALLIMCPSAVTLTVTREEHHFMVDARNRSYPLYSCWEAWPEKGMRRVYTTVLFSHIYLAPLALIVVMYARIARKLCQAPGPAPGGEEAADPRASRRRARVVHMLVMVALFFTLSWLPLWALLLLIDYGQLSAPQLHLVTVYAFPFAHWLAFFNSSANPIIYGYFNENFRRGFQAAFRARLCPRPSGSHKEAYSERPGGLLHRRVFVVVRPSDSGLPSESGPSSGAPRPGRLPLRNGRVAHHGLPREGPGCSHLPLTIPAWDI
Experimental: With this buffer, the membrane fraction from human-type OT7T022-expressing CHO cells was diluted to give a concentration of 1 μg/25 μl. […] Sample solutions prepared, NSB and the assay buffer were dispensed into polypropylene 96-well plates in quadruplicate as total 50 μl/well. […] Twenty-five microliter of the membrane fraction solution from human-type OT7T022-expressing CHO cells was added thereto, agitated with a plate mixer and incubated at room temperature for 1.5 hr. Using a cell harvester for 96-well plates, the contents of each well were adsorbed onto a filter unit (GF/C, treated with polyethylene imine) pre-moisturized with washing buffer (50 mM Tris-HCl, pH 7.5). After washing 5 times with the washing buffer, the adsorbate was dried thoroughly. The lower part of the filter unit was sealed. Then, 50 μl of liquid scintillator was added to each well and the upper part of the filter unit was sealed. Radioactivity was measured with a Top Count (Packard), and data were analyzed in triplicate.

[3] = system: adult male Wistar rats; assay: Plasma pituitary hormone levels after administration into the third ventricle; type: in vivo, rat; conditions: 10 mnol into the third ventricle; for plasma prolactin levels: vs PBS control
Experimental: Effects of the administration of the peptide represented by SEQ ID NO: 39 into the third ventricle upon pituitary hormone levels were examined. Briefly, adult male Wistar rats (body weight 290–350 g at the time of surgery) were anesthetized by intraperitoneal administration of 50 mg/kg pentobarbital and fixed in a stereotaxic apparatus for rat brain. The incisor bar was set 3.3 mm below the interaural line. The skull surface was exposed, and a hole was drilled in the skull with a dental drill in order to implant a guide cannula Further, an anchor screw was embedded at one place around the hole. A stainless guide cannula AG-12 (inside dia. 0.4 mm, outside dia. 0.5 mm; Eicom) was inserted so that its tip is located above the third ventricle. The stereotaxic coordinates were set as follows according to the atlas of Paxinos and Watson (1998): AP: +7.2 mm (from the interaural line), L: 0.0 mm, H: +2.0 mm (from the interaural line). The guide cannula was fixed onto the skull with instant glue, dental cement and the anchor screw. A stainless dummy cannula AD-12 (outside dia. 0.35 mm; Eicom) was inserted into the guide cannula and fixed with a cap nut (Eicom). After the surgery, the rats were bred separately in individual cages for more than one week to allow recovery.
The day before the experiment, the rats that had undergone the above surgery were anesthetized by intraperitoneal administration of 50 mg/kg pentobarbital and fixed on anatomical pads in face-up position. Then, a catheter (SP35; Natsume Seisakusho) was inserted into the right jugular vein. The next day, 400 μl of blood was taken from the jugular vein. In order to prevent blood coagulation, 20 μl of physiological saline containing 200 units/ml heparin was put in advance in the injection syringe. The cap nut and the dummy cannula installed on the rat skull were removed. Instead of them, a stainless microinjection cannula AMI13 (inside dia. 0.17 mm, outside dia. 0.35 mm; Eicom) connected with a Teflon tube (length 50 cm, inside dia. 0.1 mm, outside dia. 0.4 mm; Eicom) was inserted into the guide cannula. The length of the microinjection cannula was adjusted in advance so that 1 mm of its tip is exposed from the guide cannula. One end of the Teflon tube was connected with a microsyringe pump. Then, a total 10 μl of PBS alone or PBS containing the peptide represented by SEQ ID NO: 39 was injected into the third ventricle at a flow rate of 5 μl/min. One minute after the completion of the injection, the microinjection cannula was removed, and a dummy cannula was fixed again with a cap nut. A 400 μl blood sample was taken from the cannula inserted into the jugular vein immediately before the start of the intraventricular administration and at 10, 20, 30, 40 and 60 min after the start of the intraventricular administration. The collected blood was centrifuged at 5,000 rpm for 10 min in a high-speed refrigerated microcentrifuge (MR-150; Tomy Seiko) to recover the supernatant (plasma). The prolactin levels in the plasma were measured by radioimmunoassay.
The results are expressed as mean±S.E.M. Whether there is a significant difference between the group to which PBS containing the peptide represented by SEQ ID NO: 39 was administered and the control group to which PBS alone was administered was tested by Student's t-test. Differences were assessed with two-sided tests, and significance level 5% or below was judged statistically significant.

[4] = molecular target: T3, Human OT7T022 receptor (Homo sapiens, UniProt Q9GZQ6); assay: Effect of pertussis toxin upon activation of human OT7T022 receptor (cAMP production inhibition); type: cell-based; conditions: 0.1 μM peptide, 1 μM forskolin, 100 ng/ml pertussis toxin overnight
T3 construct: expressed in transfected cells; host or cells: CHO cells
T3 sequence (Q9GZQ6 whole entry): as above
Experimental: The human OT7T022 receptor-expressing CHO cells obtained in Example A8 were plated in 24-well plates at 1×10^5 cells/well and cultured overnight. Then, the medium was changed for 100 ng/ml pertussis toxin (Sigma)-containing medium or a control medium, and the cells were cultured overnight. The cells were washed with Hanks' buffer (HBSS) supplemented with 0.05% BSA and 0.2 mM IBMX and then pre-incubated in the same buffer at 37° C., for 30 min. Subsequently, the buffer was exchanged for HBSS supplemented with 0.05% BSA and 0.2 mM IBMX, HBSS supplemented with 1 μM forskolin alone, or HBSS supplemented with 1 μM forskolin and a peptide at various concentrations, and the cells were incubated at 37° C. for 30 min. After the incubation, the buffer was exchanged for HBSS supplemented with 0.05% BSA and 0.2 mM IBMX (black column), this buffer supplemented with 1 μM forskolin alone (white column), or this buffer supplemented with 1 μM forskolin and 0.1 μM RFRP-1-12 (peptide having the amino acid sequence which is from position 81 (Met) to position 92 (Phe) of SEQ ID NO: 1) (column with slant lines), and the cells were incubated at 37° C. for 30 min. After the incubation, intracellular cAMP was extracted and determined for each well according to the protocol attached to the cAMP EIA Kit (Amersham). […]

T1 sequence (Q9EP86 whole entry): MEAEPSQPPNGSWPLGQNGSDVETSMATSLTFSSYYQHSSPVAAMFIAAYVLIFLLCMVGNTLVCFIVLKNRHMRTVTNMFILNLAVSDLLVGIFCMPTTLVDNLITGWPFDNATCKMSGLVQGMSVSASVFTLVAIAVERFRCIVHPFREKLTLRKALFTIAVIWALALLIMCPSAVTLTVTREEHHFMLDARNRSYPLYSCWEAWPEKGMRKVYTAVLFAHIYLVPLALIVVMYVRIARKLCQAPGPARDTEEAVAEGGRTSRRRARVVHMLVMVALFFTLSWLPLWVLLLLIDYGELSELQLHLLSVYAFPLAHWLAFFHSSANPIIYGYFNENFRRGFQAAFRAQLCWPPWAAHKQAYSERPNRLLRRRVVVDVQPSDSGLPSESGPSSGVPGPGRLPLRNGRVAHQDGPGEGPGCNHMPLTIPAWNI

Compound: CC(C)C[C@H](NC(=O)[C@H](CC(N)=O)NC(=O)[C@@H]1CCCN1C(=O)[C@@H](N)C(C)C)C(=O)N1CCC[C@H]1C(=O)N[C@@H](CCC(N)=O)C(=O)N[C@@H](CCCNC(=N)N)C(=O)N[C@@H](Cc1ccccc1)C(N)=O
- reactivity of rOT7T022L receptor-expressing CHO cells (acidification rate) [1]: reactive

Compound: H-ATANLPLRSGRNMEVSLVRRVPNLPQRF-NH2 [hRFRP-3 (28)]
- IC50 [2]: 1.6 nM

Compound: H-MPHSFANLPLRF-NH2
- reactivity of rOT7T022L receptor-expressing CHO cells (acidification rate) [1]: reactive
- ACTH level in the plasma [3]: did not show significant changes
- GH level in the plasma [3]: did not show significant changes
- LH level in the plasma [3]: did not show significant changes
- TSH level in the plasma [3]: did not show significant changes
- plasma prolactin levels ([3]; 60 min after administration): significant difference was observed
- plasma prolactin levels ([3]; at 20, 30 and 40 min after administration): increased significantly
- plasma prolactin levels ([3]; from 10 min after administration): increasing tendency
- cAMP production inhibitory activity in cells treated with pertussis toxin [4]: disappeared

— patent US7217808B2, “RFRP-3 and DNA thereof” (Takeda Pharmaceutical Company, Ltd., priority 2001, dated 2007)
